Assay results taken from US20040235919A1, “Phenylacetamido-thiazole derivatives, process for the preparation and their use as antitumor agents” (priority 2001, published 2004).

Target: cdk2/cyclin A (Homo sapiens, UniProt P24941)
Assay: Inhibition assay of cdk2/Cyclin A activity (SPA)
Type: biochemical
Settings: tested against cdk2/cyclin A; read-out: inhibitory activity, expressed as IC50
Description: When the number of compounds to be tested became consistent, the need for a fast and homogeneous screening assay was raised. Thus a method of assay based on the use of the SPA technology (Amersham Pharmacia Biotech) was set up. The assay consists of the transfer of radioactivity labelled phosphate moiety by the kinase to a biotinylated substrate. The resulting 33P-labelled biotinylated product is allowed to bind to streptavidin-coated SPA beads (biotin capacity 130 pmol/mg), and light emitted was measured in a scintillation counter.
Inhibition Assay of cdk2/Cyclin A Activity
Kinase reaction: 4 microM in house biotinylated histone H1 (Sigma # H-5505) substrate, 10 microM ATP (0.1 microCi P^33gamma-ATP), 4.2 ng cdk2/Cyclin A complex, inhibitor in a final volume of 30 microl buffer (TRIS HCl 10 mM pH 7.5, MgCl2 10 mM, DTT 7.5 mM+0.2 mg/ml BSA) were added to each well of a 96 U bottom. […]
After 20 min. incubation for substrate capture, 100 microl 5M CsCl were added to allow statification of beads to the top of the plate and let stand 4 hours before radioactivity counting in the Top-Count instrument
IC50 determination: inhibitors were tested at different concentrations ranging from 0.0015 to 10 microM. Experimental data were analyzed by the computer program GraphPad Prizm using the four parameter logistic equation: […]

Row | Structure (SMILES) | IC50
1 | CC(=O)Nc1ccc([C@H](C)C(=O)Nc2ncc(C(C)C)s2)cc1 [(2S)-2-[4-(acetylamino)phenyl]-N-(5-isopropyl-1,3-thiazol-2-yl)propanamide] | 11 nM
2 | CC(=O)Nc1ccc(CC(=O)Nc2ncc(C(C)C)s2)cc1 [N-(5-isopropyl-1,3-thiazol-2-yl)-2-[4-(acetylamino)phenyl]acetamide] | 110 nM
